Each structure is given as a SMILES string. Read-outs that look alike come from different tables or passages of the source.

Test [1] concerns serum HBV DNA. Briefly: Phase 3 clinical study GS-98-438, HBeAg negative chronic hepatitis B patients. In kind it is in vivo, human. The procedure: The median serum HBV DNA levels declined by 3.5 and 3.9 log10 copies/mL from baseline to week 48 in the ADV 10 mg dose groups in HBeAg positive (Study GS-98-437) and in HBeAg negative (Study GS-98-438) chronic hepatitis B patients, respectively.
Adefovir resistance surveillance was performed in a blinded manner in HBeAg negative chronic hepatitis B patients treated for 96 weeks in a Phase 3 double-blind, randomized, placebo-controlled clinical study (GS-98-438) of adefovir dipivoxil 10 mg (ADV). The analysis included 79 patients who received ADV 10 mg daily for the first 48 weeks and were randomized to also receive ADV 10 mg during the second 48 weeks.
The reverse transcriptase (RT) domain of the HBV polymerase gene (rt1 to rt344) was sequenced for HBV DNA extracted from baseline and week 96 serum samples (or the last on-study sample) for the 79 patients treated continuously with ADV for 96 weeks if the samples had detectable serum HBV DNA (≧1000 copies/mL by Roche Amplicor™ PCR assay) at the time points tested.
Study GS-98-438 is a randomized, double-blind, placebo-controlled Phase 3 clinical study of the safety and efficacy of ADV for the treatment of patients with HBeAg negative/anti-HBe positive/HBV DNA positive chronic hepatitis B. A total of 184 patients received at least one dose of study medication during the first 48 weeks (n=61 and 123 for the placebo and ADV 10 mg groups, respectively). During the second 48 weeks, all placebo patients switched to ADV 10 mg daily while the ADV-treated patients were re-randomized to either continue ADV or receive placebo at a 2:1 ratio. Accordingly, all patients who received at least one dose of study drug during the second 48 weeks are classified into three groups: PLB-ADV (n=60), ADV-ADV (n=79), and ADV-PLB (n=40).
A virology substudy of Study GS-98-438 included all patients in the ADV 10 mg-ADV 10 mg group (n=79). The RT domain of the HBV polymerase gene from banked serum samples from these patients was genotypically analyzed at baseline, and either at week 96, or upon early termination during the second 48 weeks.
If the week 96 serum HBV DNA value was not available for a patient, the closest serum HBV DNA value prior to week 96 was used. All week 96 and the last on-drug samples are referred to as week 96 samples hereafter. Note that Roche Molecular Systems raised the lower limit of quantification of the HBV DNA PCR assay from 400 copies/mL to 1,000 copies/mL after Gilead completed the week 48 analyses for study 438.

Test [2] deals with serum HBV DNA. The conditions noted are these: ADV 10 mg daily, HBeAg positive patients; cited from earlier work.
Test [3] relates to serum HBV DNA. The conditions noted are these: ADV 10 mg daily, HBeAg negative patients; cited from earlier work.
The subject of a further test is rtN236T mutant HBV. Briefly: Whole HBV genome cell culture drug susceptibility assay, rtN236T patient-derived clones. The test is classed as cell-based, hepatitis B virus. As to conditions: for IC50 Fold Change (Week96/Baseline): adefovir; for susceptibility of the rtN236T mutant (in words): in vitro.
The subject of test [4] is rtA181T mutant lab HBV strain (ayw). Briefly: Adefovir susceptibility of standard HBV lab strain carrying rtA181T. In kind it is cell-based, hepatitis B virus. The text has this:
(§1) One patient (0454-2506) with the rtN236T mutation also developed a second conserved site mutation rtA181T at week 96. However, all week 96 isolates derived from the patient encoding both rtN236T and rtA181T were replication deficient in vitro; the reason for this is unclear. To assess the adefovir sensitivity of HBV containing both rtN236T and rtA181Tmutations, an artificial construct was obtained by modifying an existing patient-derived HBV clone. The rtA181T mutation was introduced by site-directed mutagenesis into replicating HBV clones from patient 0454-2506 that already encoded rtN236T. The resulting double mutants were replication competent and were used for adefovir susceptibility testing. […] The rtA181T mutation was also introduced into a standard HBV lab strain (genotyped, ayw) to assess the individual contribution of the rtA181T mutation.

In test [5] the test system is rtN236T+rtA181T double mutant HBV. Briefly: Adefovir susceptibility of rtN236T+rtA181T double mutant made by site-directed mutagenesis of patient-derived clone. In kind it is cell-based, hepatitis B virus.
Text: as §1

The next test concerns rtA181V mutant HBV. Description: Whole HBV genome cell culture drug susceptibility assay, rtA181V patient-derived clones. In kind it is cell-based, hepatitis B virus. As to conditions: for IC50: Hepatitis B virus, HepG2, 168 h, HepG2, 7 days; for IC50 Fold Change (Week96/Baseline): adefovir. From the text: . The rtA181V mutation appears to confer a low degree of reduced susceptibility to adefovir relative to the adefovir-resistant rtN236T mutation (7- to 14-fold resistance to adefovir in vitro). […] In contrast, serum HBV DNA in the other patient (0624-1517) remained suppressed below 1000 copies/mL after a period of treatment interruption during which this mutation was detected (FIG. 2). […] The clinical significance of the rtA181V mutation is unclear based on the in vitro drug susceptibility data and the disparate clinical profiles of the two patients, although as noted it would have diagnostic utility for HBV infection.

In test [6] the test system is wild-type lab HBV strain (ayw). Description: Adefovir susceptibility of standard HBV lab strain, wild-type. In kind it is cell-based, hepatitis B virus.
Text: as §1

In test [7] the test system is wild-type HBV (baseline patient-derived clones). Briefly: Whole HBV genome cell culture drug susceptibility assay, baseline wild-type patient-derived clones. The test is classed as cell-based, hepatitis B virus.
Test [8] relates to rtK241E+rtK318Q mutant HBV. Description: Whole HBV genome cell culture drug susceptibility assay, rtK241E+rtK318Q patient-derived clones. The conditions noted are these: adefovir, patient 0370-3503, rtK241E + rtK318Q.
Procedure: Drug susceptibility of patient-derived clones was analyzed by transient transfection into HepG2 cells.
To investigate if these conserved site mutations conferred resistance to adefovir, adefovir susceptibility of HBV isolates derived from the above five patients was evaluated using a whole HBV genome cell culture assay as described above.
Test [9] has as its target recombinant HBV polymerase (Hepatitis B virus genotype D subtype ayw, UniProt P03156). The conditions noted are these: competitive with respect to dATP; read-out: inhibition constant (Ki); cited from earlier work.
Setting [10] is: Hepatitis B virus, read-out: IC50 rtN23T Mutant, patient-derived HBV strain carrying rtN236T (Table 7).
Where [11] appears, read: patient-derived HBV strain carrying rtN236T (Table 7).
Setting [12] is: Hepatitis B virus, read-out: IC50 Wild-type, patient-derived HBV strain, wild-type (Table 7).
Where [13] appears, read: patient-derived HBV strain carrying rtN236T (Table 7), read-out: IC50 rtN23T Mutant.
Where [14] appears, read: patient-derived HBV strain, wild-type (Table 7), read-out: IC50 Wild-type.

recombinant HBV polymerase, sequence (P03156 whole entry): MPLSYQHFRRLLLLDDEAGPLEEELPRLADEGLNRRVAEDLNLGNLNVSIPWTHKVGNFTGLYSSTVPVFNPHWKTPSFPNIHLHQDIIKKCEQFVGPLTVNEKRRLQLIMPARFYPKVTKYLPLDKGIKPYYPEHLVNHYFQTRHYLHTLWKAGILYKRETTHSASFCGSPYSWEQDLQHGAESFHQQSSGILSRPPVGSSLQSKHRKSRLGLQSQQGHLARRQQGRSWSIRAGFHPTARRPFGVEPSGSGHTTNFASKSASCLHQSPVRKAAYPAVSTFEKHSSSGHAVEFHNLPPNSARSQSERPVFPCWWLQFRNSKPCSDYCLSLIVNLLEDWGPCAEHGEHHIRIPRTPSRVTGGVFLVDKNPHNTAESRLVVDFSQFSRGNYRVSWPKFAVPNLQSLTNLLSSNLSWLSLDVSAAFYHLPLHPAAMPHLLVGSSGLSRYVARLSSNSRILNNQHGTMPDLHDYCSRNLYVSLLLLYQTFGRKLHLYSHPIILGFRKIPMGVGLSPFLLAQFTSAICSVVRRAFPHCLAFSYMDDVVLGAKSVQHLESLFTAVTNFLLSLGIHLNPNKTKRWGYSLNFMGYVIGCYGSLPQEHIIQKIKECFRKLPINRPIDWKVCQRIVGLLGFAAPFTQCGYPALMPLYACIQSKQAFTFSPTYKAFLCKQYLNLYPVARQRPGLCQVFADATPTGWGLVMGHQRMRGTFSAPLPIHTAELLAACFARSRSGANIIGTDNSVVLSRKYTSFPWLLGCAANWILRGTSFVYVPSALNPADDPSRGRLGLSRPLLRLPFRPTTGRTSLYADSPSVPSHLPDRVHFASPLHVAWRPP

As to `CC(C)(C)C(=O)OCOP(=O)(COCCn1cnc2c(N)ncnc21)OCOC(=O)C(C)(C)C` [ADV, adefovir dipivoxil], in the test with serum HBV DNA [1] (both patients who developed rtN236T (0626-1537, 0454-2506)), the “serum HBV reduction from baseline after initiation of therapy” value was “less than 2 log10 copies/mL”. Also, the “patients with serum HBV DNA levels <1000 copies/mL at week 96 (or last on-study visit)” value with serum HBV DNA [1] (of 79 patients, ADV 10 mg daily for 96 weeks) stood at 58 patients. For the same compound, the “reduction in serum HBV DNA” value in the test with serum HBV DNA [1] (patient 0370-3503 (rtK241E+rtK318Q), week 96) was over 5 log10. The “serum HBV DNA” value was found to be 3.1 log10 copies/mL in the test on serum HBV DNA [1] (patient 0370-3503, week 96) and 3.6 log10 copies/mL in the test with serum HBV DNA [1] (patient 0370-3503, week 156). In addition, the “median serum HBV DNA decline from baseline to week 48” value in the test with serum HBV DNA [2] is recorded as 3.5 log10 copies/mL; with serum HBV DNA [3] it was 3.9 log10 copies/mL.

One may read the IC50 as the concentration needed to halve the response being measured. On to `Nc1ncnc2c1ncn2CCOCP(=O)(O)O` [Adefovir, adefovir], for which the IC50 with rtN236T mutant HBV (Hepatitis B virus, HepG2, 168 h, read-out: Adefovir IC50 Week 96, patient 0454-2506, week 96 clones with single rtN236T, HepG2, 7 days) stood at 1550 ± 910 nM; in the test with rtN236T mutant HBV (Hepatitis B virus, HepG2, 168 h, read-out: Adefovir IC50 Week 96, patient 0626-1537, week 96 rtN236T clones, HepG2, 7 days), 3640 ± 2780 nM; with rtN236T mutant HBV (setting [10]), 1470 nM; in test [4] (Hepatitis B virus), 240 ± 30 nM; in test [5] (Hepatitis B virus, patient 0454-2506 derived clone, rtN236T + rtA181T (rtA181T introduced by site-directed mutagenesis)) it was 530 ± 260 nM; in the test with rtA181V mutant HBV (read-out: Adefovir IC50 Week 96, patient 0624-1517, week 96 rtA181V clones) it was 520 ± 110 nM. Further, the IC50 came out at 620 ± 290 nM in the test on rtA181V mutant HBV (read-out: Adefovir IC50 Week 96, patient 0624-1564, week 96 rtA181V clones); 190 ± 30 nM in [6] (Hepatitis B virus, lab HBV strain, wild-type); 160 ± 10 nM in test [7] (Hepatitis B virus, HepG2, 168 h, read-out: Adefovir IC50 Baseline, patient 0370-3503, baseline clones, HepG2, 7 days); 210 ± 10 nM in test [7] (Hepatitis B virus, HepG2, 168 h, read-out: Adefovir IC50 Baseline, patient 0454-2506, baseline wild-type clones, HepG2, 7 days); 210 ± 70 nM in test [7] (Hepatitis B virus, HepG2, 168 h, read-out: Adefovir IC50 Baseline, patient 0624-1517, baseline clones, HepG2, 7 days); 210 ± 10 nM in test [7] (Hepatitis B virus, HepG2, 168 h, read-out: Adefovir IC50 Baseline, patient 0624-1564, baseline clones, HepG2, 7 days). Besides, the IC50 in test [7] (Hepatitis B virus, HepG2, 168 h, read-out: Adefovir IC50 Baseline, patient 0626-1537, baseline clones, HepG2 transient transfection, 7 days) was 260 ± 170 nM; in test [7] (setting [12]), 150 nM. Moreover, the “IC50 Fold Change (Week96/Baseline)” value in the test with rtN236T mutant HBV (patient 0454-2506, single rtN236T) is on record as 7.3 fold; in the test on rtN236T mutant HBV (patient 0626-1537, rtN236T), 13.8 fold; in the test on rtA181V mutant HBV (patient 0624-1517, rtA181V) it was 2.5 fold; in the test on rtA181V mutant HBV (patient 0624-1564, rtA181V), 3.0 fold; in test [8] it was 0.9 fold; in test [8] (listed as adefovir) it was “less than 0.9 fold”. The “IC50 Fold Change (rtN236T/Wild-type)” value in the test with rtN236T mutant HBV (setting [11]) turned out to be 9.6 fold. The “IC50 Fold Change from Wild-Type” value turned out to be 1.3 fold in [4] (adefovir); 2.5 fold in test [5] (adefovir, patient 0454-2506 derived, rtN236T + rtA181T); 1 fold in [6] (adefovir, lab HBV strain wild-type, reference); 1 fold in [7] (adefovir, patient 0454-2506 wild-type (baseline), reference).

As to `C=C1[C@H](CO)[C@@H](O)C[C@@H]1n1cnc2c(=O)[nH]c(N)nc21` [Entecavir, entecavir], the results for the IC50 (in the test on rtN236T mutant HBV (setting [10]); in [7] (setting [12])) were 0.26 nM and 0.39 nM, respectively. Besides, the “susceptibility of the rtN236T mutant (in words)” value in the test on rtN236T mutant HBV was “remained susceptible”. Further, the “IC50 Fold Change (rtN236T/Wild-type)” value in the test on rtN236T mutant HBV (setting [11]) turned out to be 0.67 fold.

For the compound `Cc1cn([C@@H]2C[C@@H](O)[C@H](CO)O2)c(=O)[nH]c1=O` [L-dT], the “susceptibility of the rtN236T mutant (in words)” value in the test with rtN236T mutant HBV is “remained susceptible”. The “IC50 Fold Change (rtN236T/Wild-type)” value with rtN236T mutant HBV (setting [11]) was 2.4 fold. In addition, the IC50 is 330 nM in the test with rtN236T mutant HBV (setting [13]) and 140 nM in test [7] (setting [14]).

Regarding `Nc1ccn([C@@H]2CS[C@H](CO)O2)c(=O)n1` [Lamivudine, lamivudine], the IC50 with rtN236T mutant HBV (setting [10]) was 70 nM; with rtN236T mutant HBV (Hepatitis B virus, read-out: Lamivudine IC50 Week 96, patient 0454-2506, week 96 clones with single rtN236T), 70 nM. Moreover, in the test on rtN236T mutant HBV (rtN236T mutant in vitro), the “lamivudine IC50 change” value is on record as at most 3.5 fold.

Regarding `COc1ccc(Sc2nc(N)nc3c2ncn3CCOCP(=O)(OCC(F)(F)F)OCC(F)(F)F)cc1` [MCC-478], the IC50 in the test on rtN236T mutant HBV (setting [10]) was found to be 250 nM; in [7] (setting [12]), 30 nM. Also, the “IC50 Fold Change (rtN236T/Wild-type)” value in the test on rtN236T mutant HBV (setting [11]) was 8.6 fold.

`C[C@H](Cn1cnc2c(N)ncnc21)OCP(=O)(O)O` [Tenofovir, tenofovir]: in the test with rtN236T mutant HBV (setting [11]), the “IC50 Fold Change (rtN236T/Wild-type)” value amounted to 4.2 fold. In addition, the IC50 was determined as 550 nM in the test on rtN236T mutant HBV (setting [13]) and 130 nM in test [7] (setting [14]).

One may read the Ki as a measure of affinity in units of concentration, obtained from inhibition or displacement. Turning to `Nc1ncnc2c1ncn2CCOCP(=O)(O)OP(=O)(O)OP(=O)(O)O` [adefovir diphosphate], the Ki in [9] was 100 nM.

Values taken from patent US20040191763A1, “HBV mutations associated with reduced susceptibility to adefovir” (priority 2002, published 2004).
